Test results from patent publication US10376515B2, “Analogs of adenosine monophosphate (AMP) as inhibitors of ubiquitin-like modifier-activating enzyme ATG7” (Northwestern University, priority 2016, dated 2019).
Entries after “also recorded” stand apart in the source; their conditions may differ.

Columns and labels:
A549 cells = test: In-gel fluorescent detection of probe-labeled proteomes in live A549 cells; format: cell-based; settings: 10 μM, 2 hours; for cell permeability and labeling of proteins in live cells: rhodamine azide click, in-gel fluorescence
Protocol: We investigated the labeling of proteins with the developed probes inside of live cells. To this end, A549 cells were treated with 10 μM of compounds 1, 2, 3, and 5 for 2 hours. Then, the lysate was treated with click reaction mixtures containing rhodamine azide.
A549 cells were grown in RPMI medium (Life Technologies) supplemented with 10% fetal bovine serum in 6-well plates. Confluent A549 cells (9.6 cm^2 per condition in 6-well plates) were washed with Dulbecco's Phosphate-Buffered Saline (DPBS, 3 mL) and the growth medium was replaced with RPMI medium containing each probe. After 2 h incubation time at 37° C., cells were washed with DPBS (3 mL). 160 μL of lysis buffer containing Tris HCl (25 mM, pH 7.6), NaCl (150 mM), 1% NP40, 1% sodium deoxycholate, 0.1% SDS, and protease inhibitor cocktail for mammalian cells (Sigma-Aldrich, 1:100 v/v) was added to each well of the 6-well plates, and cells were lysed on ice for 10 min. The gathered lysate was flown through 21G syringe for the complete breakdown. The complete lysis of the cells was monitored using Carl Zeiss Primo Vert inverted microscope. 10 μL of each cell lysate was treated with sodium dodecyl sulfate (final concentration 1%), followed by the incubation with the click chemistry reagents (CuSO4 (final conc. 1 mM), TBTA (final conc. 100 μM), sodium ascorbate (final conc. 1 mM) and Azide-Fluor-585 (final conc. 100 μM) for 30 min. Proteins were resolved by 10% SDS-PAGE, and subjected to in-gel scanning fluorescence imaging to visualize the covalent adducts. Total proteins in the gel were then visualized by staining the gel with Instant Blue™.

[1] = molecular target: T1, Human recombinant ATG7 protein (Homo sapiens, UniProt O95352); test: Labeling of ATG7 with probes in vitro (click chemistry, in-gel fluorescence); format: binding; settings: 3 hours; for labeling efficiency of ATG7 (intensity of the fluorescent bands): catalytically active ATG7 (0.5 μM), increasing probe concentrations, click chemistry, in-gel fluorescence
T1 construct: purchased R&D Systems
T1 sequence (O95352 1-703): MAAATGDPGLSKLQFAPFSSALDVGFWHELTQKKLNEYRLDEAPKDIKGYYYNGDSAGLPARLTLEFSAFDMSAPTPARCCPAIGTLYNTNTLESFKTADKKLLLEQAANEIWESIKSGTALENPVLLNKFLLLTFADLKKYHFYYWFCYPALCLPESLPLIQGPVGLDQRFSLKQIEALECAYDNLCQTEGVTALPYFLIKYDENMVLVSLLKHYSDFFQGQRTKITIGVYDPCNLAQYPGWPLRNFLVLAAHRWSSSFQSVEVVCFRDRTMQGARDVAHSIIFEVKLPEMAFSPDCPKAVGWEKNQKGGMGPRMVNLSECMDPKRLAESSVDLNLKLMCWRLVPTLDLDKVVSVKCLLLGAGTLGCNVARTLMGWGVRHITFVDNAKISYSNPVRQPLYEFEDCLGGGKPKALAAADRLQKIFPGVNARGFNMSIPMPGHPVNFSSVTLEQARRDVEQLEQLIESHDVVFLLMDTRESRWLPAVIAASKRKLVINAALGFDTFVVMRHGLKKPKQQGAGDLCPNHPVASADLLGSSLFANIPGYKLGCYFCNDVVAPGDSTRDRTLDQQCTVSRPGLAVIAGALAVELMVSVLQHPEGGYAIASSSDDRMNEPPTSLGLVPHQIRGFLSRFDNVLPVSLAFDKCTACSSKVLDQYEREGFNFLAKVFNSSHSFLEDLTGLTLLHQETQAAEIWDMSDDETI
Protocol: Following the synthesis, we incubated probes 1, 2, and 3 with catalytically active ATG7 (0.5 μM) for 3 hours. Then the click chemistry was followed to measure the levels of small molecule labeled ATG7. The intensity of the fluorescent bands was interpreted as the labeling efficiency of the probes.
(§1) Subsequently, increasing concentrations of compounds 4 and 5 were incubated with catalytically active ATG7 (0.5 μM) for 3 hours. […] We also conducted an ATP-competition reaction to test if compounds 4 and 5 utilize the ATP binding site for the covalent labeling. ATG7 was incubated with compound 4 or 5 in the presence or absence of ATP (100 μM) (FIG. 5B).
(§2) General Information. Human recombinant ATG7 protein was purchased from R&D Systems and used without further purification. In-gel fluorescence imaging was performed on a Typhoon 9600 (GE Healthcare).
(§3) Labeling of ATG7 with probes 1, 2, 3, 4, and 5 in vitro. ATG7 (0.4 μM) and TCEP (100 μM) in buffer containing HEPES (25 mM, pH 7.6), NaCl (50 mM), and MgCl2 (4 mM) were treated with increasing concentrations of each probe at room temperature (10 μL total volume) for 2 h. The reaction mixtures were treated with 1 μl of 10% SDS followed by 4 μL of click reaction mixture: CuSO4 (final conc. 1 mM), TBTA (final conc. 100 μM), sodium ascorbate (final conc. 1 mM), and Azide-Fluor-585 (final conc. 100 μM). The reaction mixture was incubated for 30 min at r.t., followed by the addition of 3 μL of 6× Laemmli loading buffer, and resolved by 12% SDS-PAGE. The bottom of the gel was cut to eliminate the excessive amount of Azide-Fluor-585. The acrylamide gel was kept in 50% ddH2O, 40% EtOH and 10% Acetic acid solution until it was subjected to the in-gel scanning fluorescence imaging (Typhoon 9600, GE Healthcare). The proteins in the gel were then visualized with Instant Blue™.

[2] = molecular target: T1, Human recombinant ATG7 protein; test: ATP-competition reaction for covalent labeling of ATG7; format: binding; settings: ATP (100 μM) present or absent
Protocol: as §1, §2
as §3, with “The bottom of the gel was cut to eliminate the excessive amount of Azide-Fluor-585.” left out, “The proteins in the gel were then visualized with Instant Blue™.” left out

Compound	cell permeability and labeling of proteins in live cells (A549 cells)	labeling efficiency of ATG7 (intensity of the fluorescent bands) [1]	labeling of ATG7 at 10 μM concentration ([1]; probe 10 μM, ATG7 (0.5 μM))	labeling of ATG7 in the presence of ATP compared to ATP free conditions [2]	off-targets (non-specifically labeled proteins) in live cells (A549 cells)
C#CCCCCNS(=O)(=O)C=C [Compound 1]	cell permeable and able to label proteins in live cells	inefficient labeling	little labeling	–	–
C#CCNc1ncnc2c1ncn2[C@@H]1O[C@H](CNS(=O)(=O)C=C)[C@@H](O)[C@H]1O [Compound 2]	cell permeable and able to label proteins in live cells	–	–	–	–
C#Cc1cccc(Nc2ncnc3c2ncn3[C@@H]2O[C@H](CNS(=O)(=O)C=C)[C@@H](O)[C@H]2O)c1 [Compound 3]	cell permeable and able to label proteins in live cells	higher labeling efficiency than 2; also recorded: much higher labeling efficiency than propargyl alkyne containing probes; also recorded: most potently labels ATG7	–	–	–
C#CCNc1ncnc2c1ncn2[C@@H]1O[C@H](COS(=O)(=O)C=C)[C@@H](O)[C@H]1O [Compound 4]	–	–	–	significantly dropped; also recorded: utilize ATP binding site for the ATG7 labeling	–
C#Cc1cccc(Nc2ncnc3c2ncn3[C@@H]2O[C@H](COS(=O)(=O)C=C)[C@@H](O)[C@H]2O)c1 [Compound 5]	cell permeable and able to label proteins in live cells	stronger intensity of the fluorescent bands than compound 4-treated ATG7; also recorded: much higher labeling efficiency than propargyl alkyne containing probes; also recorded: greater labeling potency than compound 4	–	significantly dropped; also recorded: utilize ATP binding site for the ATG7 labeling	more numbers of off-targets when compared with compound 3; also recorded: strongest off target effects
